From patent US6693112B2, “Compounds for enhancing chemotherapy” (The Pennsylvania State University, priority 2000, dated 2004)
Where two headings read alike, the source gives them in different places.

How the values were obtained:
MCF-7 cells [1] = test: Drug cytotoxicity with or without 10 μM modulator, MCF-7 cells (Table V)
MCF7/VP cells = test: Drug cytotoxicity with or without 10 μM modulator, MCF7/VP (MRP1) cells (Table V); details: for IC50: read-out: IC50 (EtOH)
NCI/ADR cells [2] = test: Drug cytotoxicity with or without 10 μM modulator, NCI/ADR cells (Table V); details: for IC50: read-out: IC50 (EtOH)
A498 cells = test: Drug cytotoxicity with or without 10 μM modulator, A498 cells (Table V)
P388/ADR cells = test: Drug cytotoxicity with or without 10 μM modulator, P388/ADR cells (Table V); details: for IC50: read-out: IC50 (EtOH)
T24 cells = test: Drug cytotoxicity with or without 10 μM modulator, T24 cells (Table V)
NCI/ADR cells [3] = test: Accumulation of [3H]Taxol and [3H]vinblastine by NCI/ADR cells; assay type: cell-based
P-gp = P-gp (Homo sapiens, UniProt P08183)
Method: The percentage of cells that died following treatment was calculated as a percent decrease in sulforhodamine B binding as compared with control cultures. […] Inhibition of P-gp was manifested as the ability of the compound to enhance the cytotoxicity of vinblastine toward NCI/ADR cells. To assess the toxicity of the compounds toward drug-sensitive cells, the effects of the compounds on the growth of drug-sensitive MCF-7 cells were determined using the same methods.
The P-gp antagonism score was calculated by dividing the percent survival of NCI/ADR cells treated with the compound alone by the percent survival of NCI/ADR cells treated with the compound in the presence of 50 nM vinblastine. Chemosensitization is indicated by a score of more than 1.0.
The P-gp antagonism score was calculated by dividing the percent survival of NCI/ADR cells treated with […] by the percent survival of NCI/ADR cells treated with the compound in the presence of 50 nM vinblastine.

MCF-7 cells [4] = test: Accumulation of [3H]Taxol and [3H]vinblastine by MCF-7 cells; assay type: cell-based, human
MCF-7/VP cells = test: Accumulation of [3H]Taxol and [3H]vinblastine by MCF-7/VP cells; assay type: cell-based
MCF-7 cells [5] = test: Cytotoxicity toward drug-sensitive MCF-7 cells (sulforhodamine B binding assay); assay type: cell-based, human; details: MCF-7 cells; concentration required to kill 50% of the cells
[6] = Homo sapiens, MCF7, read-out: IC50 (EtOH)
[7] = Homo sapiens, A498, read-out: IC50 (EtOH)
[8] = Homo sapiens, T-24, read-out: IC50 (EtOH)
[9] = MCF-7 cells, IC50 in the absence / in the presence of 10 μM of verapamil or Compound 4008
[10] = MCF7/VP (MRP1) cells, IC50 in the absence / in the presence of 10 μM of verapamil or Compound 4008
[11] = NCI/ADR cells, IC50 in the absence / in the presence of 10 μM of verapamil or Compound 4008
[12] = A498 cells, IC50 in the absence / in the presence of 10 μM of verapamil or Compound 4008
[13] = P388/ADR cells, IC50 in the absence / in the presence of 10 μM of verapamil or Compound 4008
[14] = T24 cells, IC50 in the absence / in the presence of 10 μM of verapamil or Compound 4008

P-gp, sequence (P08183 whole entry): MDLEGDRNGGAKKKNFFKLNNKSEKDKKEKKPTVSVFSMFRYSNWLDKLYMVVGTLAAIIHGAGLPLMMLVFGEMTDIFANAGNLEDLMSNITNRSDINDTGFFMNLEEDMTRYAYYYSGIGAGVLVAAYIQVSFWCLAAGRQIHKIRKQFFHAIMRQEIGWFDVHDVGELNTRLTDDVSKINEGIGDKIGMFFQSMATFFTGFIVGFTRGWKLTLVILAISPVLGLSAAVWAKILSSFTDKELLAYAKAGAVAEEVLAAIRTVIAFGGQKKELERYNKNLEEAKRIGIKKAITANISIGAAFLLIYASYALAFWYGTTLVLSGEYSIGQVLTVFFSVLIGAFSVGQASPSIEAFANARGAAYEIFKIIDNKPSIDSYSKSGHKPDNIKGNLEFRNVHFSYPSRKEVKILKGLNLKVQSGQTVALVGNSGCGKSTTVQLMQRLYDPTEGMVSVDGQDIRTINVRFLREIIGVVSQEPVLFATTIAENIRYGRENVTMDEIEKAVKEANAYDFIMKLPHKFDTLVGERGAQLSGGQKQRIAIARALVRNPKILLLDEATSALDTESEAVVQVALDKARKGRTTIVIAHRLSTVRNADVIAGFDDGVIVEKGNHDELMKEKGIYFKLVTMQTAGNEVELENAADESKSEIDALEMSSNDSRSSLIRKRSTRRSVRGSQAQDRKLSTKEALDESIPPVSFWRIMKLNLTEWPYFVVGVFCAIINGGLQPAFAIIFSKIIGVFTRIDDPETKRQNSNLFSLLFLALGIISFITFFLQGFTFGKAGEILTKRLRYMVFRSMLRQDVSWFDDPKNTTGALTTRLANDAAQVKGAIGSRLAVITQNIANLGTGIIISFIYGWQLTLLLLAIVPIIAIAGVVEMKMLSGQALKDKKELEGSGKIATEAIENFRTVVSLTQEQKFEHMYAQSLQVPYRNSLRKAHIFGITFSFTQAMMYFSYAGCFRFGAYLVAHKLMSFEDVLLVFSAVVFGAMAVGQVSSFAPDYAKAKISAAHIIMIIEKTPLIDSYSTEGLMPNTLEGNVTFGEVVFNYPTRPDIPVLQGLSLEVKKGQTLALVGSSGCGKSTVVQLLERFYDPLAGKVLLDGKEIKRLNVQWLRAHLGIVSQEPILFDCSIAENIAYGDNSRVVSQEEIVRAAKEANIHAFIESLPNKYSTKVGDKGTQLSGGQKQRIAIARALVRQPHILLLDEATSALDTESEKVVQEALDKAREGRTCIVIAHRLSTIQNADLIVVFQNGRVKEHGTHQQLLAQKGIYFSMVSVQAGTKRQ

O=c1[nH]cc(F)c(=O)[nH]1 [5-Fluorouracil, 5-fluorouracil, reference compound]
IC50 (MCF-7 cells [1]; [6]): 49 ± 31 µM
IC50 (MCF7/VP cells; Homo sapiens, MCF7-VP): 11 ± 1 µM
IC50 (NCI/ADR cells [2]; Homo sapiens, NCI/ADR-RES): 181 ± 84 µM
IC50 (A498 cells; [7]): 9 ± 2.1 µM
IC50 (P388/ADR cells; Mus musculus, P388/ADR): 0.22 ± 0.04 µM
IC50 (T24 cells; [8]): 77 ± 20 µM

N.N.[Cl][Pt][Cl] [Cisplatin, cisplatin, reference compound]
IC50 (MCF-7 cells [1]; read-out: IC50 (EtOH), MCF-7 cells, drug alone, EtOH solvent control, no modulator): 16 ± 5 µM
IC50 (MCF7/VP cells; MCF7/VP (MRP1) cells, drug alone, EtOH solvent control, no modulator): 8.5 ± 2.1 µM
IC50 (NCI/ADR cells [2]; NCI/ADR cells, drug alone, EtOH solvent control, no modulator): 7 ± 0.9 µM
IC50 (A498 cells; read-out: IC50 (EtOH), A498 cells, drug alone, EtOH solvent control, no modulator): 4.6 ± 1 µM
IC50 (P388/ADR cells; P388/ADR cells, drug alone, EtOH solvent control, no modulator): 2.1 ± 0.8 µM
IC50 (T24 cells; read-out: IC50 (EtOH), T24 cells, drug alone, EtOH solvent control, no modulator): 6.7 ± 1.1 µM

O=C(Cc1ccccc1)Nc1c2c(nc3ccccc13)N(Cc1ccccc1)CC2 [Compound 4008]
accumulation of [3H]Taxol and [3H]vinblastine (NCI/ADR cells [3]): increases the accumulation
RI, 5-Fluorouracil (MCF-7 cells [1]; [9]): 1.6
RI, Cisplatin (MCF-7 cells [1]; [9]): 0.8
RI, Taxol (MCF-7 cells [1]; [9]): 0.9
RI, Vinblastine (MCF-7 cells [1]; [9]): 1.8
RI, Vincristine (MCF-7 cells [1]; [9]): 0.9
RI, 5-Fluorouracil (MCF7/VP cells; [10]): 0.7
RI, Cisplatin (MCF7/VP cells; [10]): 0.8
RI, Taxol (MCF7/VP cells; [10]): 0.8
RI, Vinblastine (MCF7/VP cells; [10]): 1.3
RI, Vincristine (MCF7/VP cells; [10]): 1.0
enhancement of the toxicity of vincristine toward MCF7/VP cells (MCF7/VP cells; MRP1-overexpressing MCF7/VP cells): no effect
Maximum Antagonism (P-gp): 17.1 (3.1)
Maximum Antagonism (conc. μg/ml) (P-gp): 17.1 (3.1) μg/ml
therapeutic index (P-gp): at least 10 fold
accumulation of [3H]Taxol and [3H]vinblastine (MCF-7 cells [4]): without affecting the accumulation
RI, 5-Fluorouracil (NCI/ADR cells [2]; [11]): 1.0
RI, Cisplatin (NCI/ADR cells [2]; [11]): 1.2
RI, Taxol (NCI/ADR cells [2]; [11]): 70
RI, Vinblastine (NCI/ADR cells [2]; [11]): 35
RI, Vincristine (NCI/ADR cells [2]; [11]): 18
RI, 5-Fluorouracil (A498 cells; [12]): 0.7
RI, Cisplatin (A498 cells; [12]): 0.8
RI, Taxol (A498 cells; [12]): 6.8
RI, Vinblastine (A498 cells; [12]): 18
RI, Vincristine (A498 cells; [12]): 18
RI, 5-Fluorouracil (P388/ADR cells; [13]): 0.7
RI, Cisplatin (P388/ADR cells; [13]): 1.9
RI, Doxorubicin (P388/ADR cells; [13]): 200
RI, Taxol (P388/ADR cells; [13]): 202
RI, Vinblastine (P388/ADR cells; [13]): 63
RI, Vincristine (P388/ADR cells; [13]): 30
RI, 5-Fluorouracil (T24 cells; [14]): 2.6
RI, Cisplatin (T24 cells; [14]): 1.1
RI, Taxol (T24 cells; [14]): 1.2
RI, Vinblastine (T24 cells; [14]): 3.8
RI, Vincristine (T24 cells; [14]): 1.5
accumulation of [3H]Taxol and [3H]vinblastine (MCF-7/VP cells): without affecting the accumulation
Toxicity IC50 (MCF-7 cells [5]): 5 mg/L

COc1cccc2c1C(=O)c1c(O)c3c(c(O)c1C2=O)C[C@@](O)(C(=O)CO)C[C@@H]3O[C@H]1C[C@H](N)[C@H](O)[C@H](C)O1 [Doxorubicin, reference compound]
IC50 (P388/ADR cells; Mus musculus, P388/ADR): 26.7 ± 10.6 µM

CC(=O)O[C@H]1C(=O)[C@@]2(C)[C@H]([C@H](OC(=O)c3ccccc3)[C@]3(O)C[C@H](OC(=O)[C@H](O)[C@@H](NC(=O)c4ccccc4)c4ccccc4)C(C)=C1C3(C)C)[C@]1(OC(C)=O)CO[C@@H]1C[C@@H]2O [Taxol, reference compound]
IC50 (MCF-7 cells [1]; [6]): 0.0016 ± 0.0003 µM
IC50 (MCF7/VP cells; Homo sapiens, MCF7-VP): 0.0018 ± 0.0004 µM
IC50 (NCI/ADR cells [2]; Homo sapiens, NCI/ADR-RES): 2.02 ± 0.81 µM
IC50 (A498 cells; [7]): 0.049 ± 0.021 µM
IC50 (P388/ADR cells; Mus musculus, P388/ADR): 1.65 ± 0.47 µM
IC50 (T24 cells; [8]): 0.0047 ± 0.0005 µM

CC[C@]1(O)C[C@@H]2CN(CCc3c([nH]c4ccccc34)[C@@](C(=O)OC)(c3cc4c(cc3OC)N(C)[C@H]3[C@@](O)(C(=O)OC)[C@H](OC(C)=O)[C@]5(CC)C=CCN6CC[C@]43[C@@H]65)C2)C1 [Vinblastine, vinblastine, reference compound]
IC50 (MCF-7 cells [1]; [6]): 0.0004 ± 0.0001 µM
IC50 (MCF7/VP cells; Homo sapiens, MCF7-VP): 0.0006 ± 0.0001 µM
IC50 (NCI/ADR cells [2]; Homo sapiens, NCI/ADR-RES): 0.11 ± 0.017 µM
IC50 (A498 cells; [7]): 0.0076 ± 0.0026 µM
IC50 (P388/ADR cells; Mus musculus, P388/ADR): 0.028 ± 0.005 µM
IC50 (T24 cells; [8]): 0.0013 ± 0.0003 µM

CC[C@]1(O)C[C@H]2CN(CCc3c([nH]c4ccccc34)[C@@](C(=O)OC)(c3cc4c(cc3OC)N(C=O)[C@H]3[C@@](O)(C(=O)OC)[C@H](OC(C)=O)[C@]5(CC)C=CCN6CC[C@]43[C@@H]65)C2)C1 [Vincristine, vincristine, reference compound]
IC50 (MCF-7 cells [1]; [6]): 0.0006 ± 0.0001 µM
IC50 (MCF7/VP cells; Homo sapiens, MCF7-VP): 0.0075 ± 0.0011 µM
IC50 (NCI/ADR cells [2]; Homo sapiens, NCI/ADR-RES): 0.183 ± 0.014 µM
IC50 (A498 cells; [7]): 0.062 ± 0.011 µM
IC50 (P388/ADR cells; Mus musculus, P388/ADR): 0.15 ± 0.024 µM
IC50 (T24 cells; [8]): 0.0048 ± 0.0002 µM
